Experimental data from ChEMBL document CHEMBL1201862, “PubChem BioAssay data set” (2004).
Structures can show the parent of a compound that is named as a salt.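 A five-concentration, 48-hour dose response in 96-well plates underlies each endpoint, interpolated linearly between surrounding concentrations. GI50 = concentration required for 50% inhibition of growth.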 Active and inactive are the calls of the source. No stated cut-off is given here; in the data, active = GI50 up to about 1.1 µM and inactive = higher.

Columns and labels:
Assay in all cases: NCI-60 cell line screen, 48 h
HOP-92 = system: HOP-92
HL-60 = system: HL-60
MDA-MB-231 = system: MDA-MB-231
SK-OV-3 = system: SK-OV-3
HT-29 = system: HT-29
SK-MEL-2 = system: SK-MEL-2
UACC-257 = system: UACC-257
UACC-62 = system: UACC-62
MCF7 = system: MCF7
SNB-75 = system: SNB-75
TK-10 = system: TK-10
SW-620 = system: SW-620
COLO 205 = system: COLO 205
NCI/ADR-RES = system: NCI/ADR-RES
MDA-MB-435 = system: MDA-MB-435
NCI-H23 = system: NCI-H23
IGROV-1 = system: IGROV-1
SR = system: SR
Hs-578T = system: Hs-578T
A498 = system: A498

## O=C(O)C1CCCCN1CCc1c[nH]c2ccccc12 (stereo not drawn)
HOP-92
  GI50: 30.7 µM (inactive)
HL-60
  GI50: > 100 µM (inactive)
MDA-MB-231
  GI50: > 100 µM (inactive)
SK-OV-3
  GI50: > 100 µM (inactive)
HT-29
  GI50: > 100 µM (inactive)
SK-MEL-2
  GI50: > 100 µM (inactive)
UACC-257
  GI50: > 100 µM (inactive)
UACC-62
  GI50: > 100 µM (inactive)
MCF7
  GI50: > 100 µM (inactive)
SNB-75
  GI50: > 100 µM (inactive)
TK-10
  GI50: > 100 µM (inactive)
SW-620
  GI50: > 100 µM (inactive)
COLO 205
  GI50: > 100 µM (inactive)
NCI/ADR-RES
  GI50: > 100 µM (inactive)
MDA-MB-435
  GI50: > 100 µM (inactive)
NCI-H23
  GI50: > 100 µM (inactive)
IGROV-1
  GI50: > 100 µM (inactive)

## CCOC(=O)CCCSCCCC(=O)CCCSCCCC(=O)OCC
HOP-92
  GI50: > 100 µM (inactive)
HL-60
  GI50: > 100 µM (inactive)
SR
  GI50: > 100 µM (inactive)
MDA-MB-231
  GI50: > 100 µM (inactive)
SK-OV-3
  GI50: > 100 µM (inactive)
HT-29
  GI50: > 100 µM (inactive)
UACC-257
  GI50: > 100 µM (inactive)
UACC-62
  GI50: > 100 µM (inactive)
MCF7
  GI50: > 100 µM (inactive)
SNB-75
  GI50: > 100 µM (inactive)
TK-10
  GI50: > 100 µM (inactive)
SW-620
  GI50: > 100 µM (inactive)
COLO 205
  GI50: > 100 µM (inactive)
NCI/ADR-RES
  GI50: > 100 µM (inactive)
MDA-MB-435
  GI50: > 100 µM (inactive)
NCI-H23
  GI50: > 100 µM (inactive)
IGROV-1
  GI50: > 100 µM (inactive)

## O=c1[nH]nc(-c2cccc([N+](=O)[O-])c2)[nH]1
HL-60
  GI50: > 100 µM (inactive)
SR
  GI50: > 100 µM (inactive)
HT-29
  GI50: > 100 µM (inactive)
SK-MEL-2
  GI50: > 100 µM (inactive)
UACC-257
  GI50: > 100 µM (inactive)
UACC-62
  GI50: > 100 µM (inactive)
MCF7
  GI50: > 100 µM (inactive)
Hs-578T
  GI50: 47.3 µM (inactive)
SNB-75
  GI50: > 100 µM (inactive)
TK-10
  GI50: > 100 µM (inactive)
SW-620
  GI50: > 100 µM (inactive)
COLO 205
  GI50: > 100 µM (inactive)
NCI/ADR-RES
  GI50: > 100 µM (inactive)
MDA-MB-435
  GI50: > 100 µM (inactive)
NCI-H23
  GI50: > 100 µM (inactive)
IGROV-1
  GI50: > 100 µM (inactive)
A498
  GI50: > 100 µM (inactive)

## Cc1nn(-c2ccccc2)c2nc(S)cnc12
HOP-92
  GI50: > 100 µM (inactive)
HL-60
  GI50: > 100 µM (inactive)
SR
  GI50: > 100 µM (inactive)
SK-OV-3
  GI50: > 100 µM (inactive)
HT-29
  GI50: > 100 µM (inactive)
SK-MEL-2
  GI50: > 100 µM (inactive)
UACC-257
  GI50: > 100 µM (inactive)
UACC-62
  GI50: > 100 µM (inactive)
MCF7
  GI50: > 100 µM (inactive)
Hs-578T
  GI50: > 100 µM (inactive)
TK-10
  GI50: > 100 µM (inactive)
SW-620
  GI50: > 100 µM (inactive)
NCI/ADR-RES
  GI50: > 100 µM (inactive)
MDA-MB-435
  GI50: > 100 µM (inactive)
NCI-H23
  GI50: > 100 µM (inactive)
IGROV-1
  GI50: > 100 µM (inactive)
A498
  GI50: > 100 µM (inactive)

## Cc1[nH]n(-c2nc3c(c(=O)[nH]2)CCC3)c(=O)c1CCO
HL-60
  GI50: > 100 µM (inactive)
MDA-MB-231
  GI50: > 100 µM (inactive)
SK-OV-3
  GI50: > 100 µM (inactive)
HT-29
  GI50: > 100 µM (inactive)
SK-MEL-2
  GI50: > 100 µM (inactive)
UACC-257
  GI50: > 100 µM (inactive)
UACC-62
  GI50: > 100 µM (inactive)
MCF7
  GI50: > 100 µM (inactive)
Hs-578T
  GI50: > 100 µM (inactive)
SNB-75
  GI50: 0.0195 µM (active)
TK-10
  GI50: > 100 µM (inactive)
SW-620
  GI50: > 100 µM (inactive)
COLO 205
  GI50: > 100 µM (inactive)
NCI/ADR-RES
  GI50: > 100 µM (inactive)
MDA-MB-435
  GI50: > 100 µM (inactive)
NCI-H23
  GI50: > 100 µM (inactive)
IGROV-1
  GI50: > 100 µM (inactive)
A498
  GI50: > 100 µM (inactive)

## O=C(/C=C/c1ccccc1)Oc1ccc(C(=O)/C=C/c2ccc(Cl)cc2)cc1
HL-60
  GI50: 71.1 µM (inactive)
SR
  GI50: 3.23 µM (inactive)
MDA-MB-231
  GI50: > 100 µM (inactive)
SK-OV-3
  GI50: > 100 µM (inactive)
HT-29
  GI50: > 100 µM (inactive)
SK-MEL-2
  GI50: > 100 µM (inactive)
UACC-257
  GI50: > 100 µM (inactive)
UACC-62
  GI50: > 100 µM (inactive)
MCF7
  GI50: 36.4 µM (inactive)
SNB-75
  GI50: 75.3 µM (inactive)
TK-10
  GI50: > 100 µM (inactive)
SW-620
  GI50: > 100 µM (inactive)
COLO 205
  GI50: > 100 µM (inactive)
NCI/ADR-RES
  GI50: 46.5 µM (inactive)
MDA-MB-435
  GI50: 25.1 µM (inactive)
IGROV-1
  GI50: > 100 µM (inactive)
A498
  GI50: > 100 µM (inactive)

## CC(C)C[C@H](NC(=O)[C@H](Cc1ccccc1)NC(=O)c1cnccn1)B(O)O [BORTEZOMIB]
HOP-92
  GI50: < 0.01 µM (active)
HL-60
  GI50: < 0.01 µM (active)
SR
  GI50: < 0.01 µM (active)
MDA-MB-231
  GI50: < 0.01 µM (active)
SK-OV-3
  GI50: 0.0329 µM (active)
HT-29
  GI50: < 0.01 µM (active)
SK-MEL-2
  GI50: 0.01 µM (active)
UACC-257
  GI50: < 0.01 µM (active)
UACC-62
  GI50: < 0.01 µM (active)
MCF7
  GI50: < 0.01 µM (active)
SNB-75
  GI50: < 0.01 µM (active)
TK-10
  GI50: < 0.01 µM (active)
SW-620
  GI50: < 0.01 µM (active)
COLO 205
  GI50: < 0.01 µM (active)
NCI/ADR-RES
  GI50: 0.0141 µM (active)
MDA-MB-435
  GI50: < 0.01 µM (active)
NCI-H23
  GI50: < 0.01 µM (active)
IGROV-1
  GI50: < 0.01 µM (active)
A498
  GI50: < 0.01 µM (active)

## C=C1C[C@@H]2CC[C@@]34C[C@H]5O[C@H]6[C@@H](O3)[C@H]3O[C@H](CC[C@@H]3O[C@H]6[C@H]5O4)CC(=O)C[C@@H]3[C@@H](OC)[C@@H](C[C@H](O)CN)O[C@H]3C[C@H]3O[C@@H](CC[C@@H]1O2)C[C@@H](C)C3=C [ERIBULIN MESYLATE]
HOP-92
  GI50: 0.00352 µM (active)
MDA-MB-231
  GI50: 0.00255 µM (active)
SK-OV-3
  GI50: 0.000558 µM (active)
HT-29
  GI50: 0.000352 µM (active)
SK-MEL-2
  GI50: 0.00607 µM (active)
UACC-62
  GI50: 0.000711 µM (active)
MCF7
  GI50: 0.000383 µM (active)
Hs-578T
  GI50: 0.0022 µM (active)
TK-10
  GI50: 0.0815 µM (active)
SW-620
  GI50: 0.00241 µM (active)
COLO 205
  GI50: 0.00031 µM (active)
NCI/ADR-RES
  GI50: 0.294 µM (active)
MDA-MB-435
  GI50: 5.96e-05 µM (active)
NCI-H23
  GI50: 0.00109 µM (active)
IGROV-1
  GI50: 0.00151 µM (active)
A498
  GI50: 0.00434 µM (active)
